US4414206A, “Animal feeds” (Bristol-Myers Company, priority 1982, dated 1983)
Entries after “also recorded” stand apart in the source; their conditions may differ.

Columns and labels:
Male broiler chickens = experiment: Four week growth and feed efficiency study in broiler chicks fed amphomycin-supplemented feed; format: in vivo, chickens (Hubbard breeder pullet×White Mountain males)
From the text: The efficacy of amphomycin in promoting growth and improving the feed efficiency of broiler chicks is illustrated below.
In this example a basal diet was employed containing the following ingredients:
Male broiler chickens (Hubbard breeder pullet×White Mountain males) were used as the test animal. They were housed in electrically heated, metal battery brooders equipped with raised wire-screen floors. […] The room and battery units were left unclean from a previous test that terminated before the chicks were started. Drinking water for the test came from overflow water from a laying cage operation. The water was collected in garbage cans and was allowed to stand overnight to permit particulate matter to settle out. The birds were vaccinated at 7 days of age for Newcastle, Bronchitis and Marek's. The feed trays were fitted with wire screens riding on top of the feed to minimize feed wastage. Feed and water were fed ad libitum. Four groups of ten birds each, chosen on the basis of hatching body weight, were fed the experimental diet for a four week test period and four groups were fed the control diet. The groups of birds and diets were placed in the batteries on the basis of position chosen from tables of random numbers. The birds and the feed were group weighed on a weekly basis. The test was terminated at four weeks of age.
The control diet was prepared as follows:
The experimental diet (for amphomycin concentration
of 4 grams/ton) was prepared as follows:
*calculated for both groups at 800 grams body weight from feed efficiency

rumen fermentation = experiment: Artificial rumen test (in vitro rumen fermentation); conditions: for Cellulose digested (%) / Methane produced (cc) / Propionate produced / Total calories digested (Calories) / Caloric efficiency: mean ± one standard deviation, three observations; for Caloric efficiency: formula in drawing 1
Method: A standard in vitro method for determining compounds which stimulate propionate production during rumen fermentation is the artificial rumen method described in U.S. Pat. No. 3,794,732. […] This property in ruminants is presumably in addition to the previously-described feed-utilization efficiency promoting activity of amphomycin in monogastric animals which involves a different mechanism of action.
Amphomycin was evaluated at doses of 0.025, 0.1 and 0.5 mg per incubation (25 ml. inoculum--artificial saliva with cellulose, starch and urea as nutrients) according to the general procedure of Example 5 of U.S. Pat. No. 3,794,732.
^a Results reported as mean ± one standard deviation. Controls
^b Reported as a percent of total volatile fatty acid calories

[1] = 4 grams/ton amphomycin in feed, versus control group
[2] = broiler chickens, about 4 to 12 grams per ton of feed, on average
[3] = 0.025, 0.1 and 0.5 mg per incubation

## amphomycin
Male broiler chickens; 4 grams/ton amphomycin in feed, ad libitum, four week test, male broiler chickens
  Body weights in grams at 4 weeks of age: 817.5 grams
Male broiler chickens; [1]
  Improvement in feed efficiency: 4.07%
  Percentage increase in weight at end of 4 weeks: 6.21%
Male broiler chickens; 4 grams/ton amphomycin in feed, calculated at 800 grams body weight from feed efficiency curve
  Feed efficiency calculated as consumption in grams ÷ average body weight in grams: 1.480
Male broiler chickens; [2]
  less total feed consumed than comparable chickens fed same diet without amphomycin: 3%
  more weight gained than comparable chickens fed same diet without amphomycin: about 3%
Rumen fermentation; 0.025 mg/tube
  Urease activity: 90 % of control
  Cellulose digested (%): 64.9 ± 2.1%
  Methane produced (cc): 2.88 ± 0.47 cc
  Propionate produced: 58.9 ± 0.9% of total volatile fatt
  Total calories digested (Calories): 1108 ± 22 Calories
  Caloric efficiency: 62.1 ± 4.5
Rumen fermentation; 0.1 mg/tube
  Urease activity: 84 % of control
  Cellulose digested (%): 64.0 ± 2.4%
  Methane produced (cc): 2.53 ± 0.20 cc
  Propionate produced: 62.1 ± 1.7% of total volatile fatt
  Total calories digested (Calories): 1098 ± 26 Calories
  Caloric efficiency: 68.9 ± 10.0
Rumen fermentation; 0.5 mg/tube
  Urease activity: 60 % of control
  Cellulose digested (%): 57.5 ± 4.0%
  Methane produced (cc): 1.27 ± 0.07 cc
  Propionate produced: 67.1 ± 4.7% of total volatile fatt
  Total calories digested (Calories): 1029 ± 43 Calories
  Caloric efficiency: 65.5 ± 16.8
Rumen fermentation; [3]
  cellulase / cellulolysis (cellulose digestion) (in words): did not significantly inhibit; also recorded: decreases slightly; also recorded: does not significantly inhibit
  methane production (in words): significantly inhibits; also recorded: decreases significantly
  propionate production (in words): significantly increase; also recorded: increases significantly
  total calories digested (in words): did not significantly inhibit cellulase or significantly affect total calories digested
Rumen fermentation; 25 ml. inoculum per incubation
  dose that appears to be the most efficacious: 0.1 mg. per incubation
Rumen fermentation; as the dose increases
  acetate and butyrate production (in words): decreases
